This passage reports EC50 results from BindingDB's records for doi:10.7270/Q2B27SQ0 (Nmmlsc, 2008).

Counter-ions that a name gives are not always drawn.

The test addresses Apoptosis regulator Bcl-2 (Homo sapiens, UniProt P10415). Nature of the test: PubChem AID 950.
Setting [1] is: inactive by the depositor's call.

Apoptosis regulator Bcl-2, sequence (P10415 whole entry): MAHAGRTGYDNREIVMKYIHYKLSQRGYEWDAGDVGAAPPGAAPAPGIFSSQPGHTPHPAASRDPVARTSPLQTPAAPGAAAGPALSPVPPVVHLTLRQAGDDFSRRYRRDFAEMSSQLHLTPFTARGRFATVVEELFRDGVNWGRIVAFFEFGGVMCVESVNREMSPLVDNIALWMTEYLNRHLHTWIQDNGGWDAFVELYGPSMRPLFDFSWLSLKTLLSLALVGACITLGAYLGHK

As to `CN1CCc2cccc3c2[C@@H]1Cc1ccc(O)c(O)c1-3`, the EC50 came out at 16.1 µM.

For the compound `CN1CCN(C2=C(Cl)C(=O)C(c3cnc(N4CCCCC4)s3)=C(Cl)C2=O)CC1`, the concentration giving a half-maximal response (EC50) under setting [1] worked out at 0.16 µM. In other words, the sub-micromolar range.

On to `CCOC(=O)c1ccc(Nc2nc(C(=O)OCC)nc3ccccc23)cc1`, for which, under setting [1], the midpoint of the response, the EC50, lay at 1.51 µM.

Regarding `CCN1C(=O)/C(=C/C=C2\C=CN(CC)c3ccccc32)SC1=S`, under setting [1], the half-maximal effective concentration (EC50) amounted to 35.3 µM.

`Cc1ccc(-c2ccc(/C=C/C(=O)c3ccccc3)o2)cc1` registered an EC50 under setting [1] of 8.47 µM.

On to `CCC(/C=C1\Sc2ccc(OC)cc2N1CCO)=C\c1sc2ccc(OC)cc2[n+]1CCO`, for which a half-maximal effect (EC50) was put at 16.1 µM.

On to `COc1ccc(-n2c(=O)c3ccccc3c3ccccc3c2=O)c(OC)c1`, for which the EC50 under setting [1] amounted to 13.4 µM.

Compound `Cc1nc2ncccn2c1-c1csc(Nc2ccc(O)cc2)n1` showed a 50% effective concentration (EC50) of 0.67 µM.

Turning to `N#Cc1cc(-c2ccccc2)nn1-c1ccccc1`, under setting [1], the midpoint of the response, the EC50, lay at 39.6 µM.

With `CN(C)c1ncc(C2=C(Cl)C(=O)C(N3CCCC3)=C(Cl)C2=O)s1`, the EC50 under setting [1] amounted to 0.21 µM.

With `c1ccc(C2=Nc3cccc4cccc(c34)N2)cc1`, the EC50 under setting [1] is 26.5 µM.

In the case of `c1ccc(-c2nc(N3CCOCC3)[s+]n2-c2ccccc2)cc1`, it took 13.8 µM to reach a half-maximal effect (EC50).

As for `Cc1ccc(C)c(/C=C/C(=O)c2ccccc(=O)c2O)c1`, the EC50 under setting [1] turned out to be 19.4 µM.

Under setting [1], `O=C(NC1=C(Nc2ccc(Cl)cc2)C(=O)c2ccccc2C1=O)c1ccccc1` returned an EC50 of 17.9 µM.

Compound `O=C(Nc1ccc2nc(-c3ccco3)c(-c3ccco3)nc2c1)N1CCN(c2ccccn2)CC1` came in with an EC50 under setting [1] of 8.86 µM. Compared with the last compound, the EC50 is about 2-fold lower.

`O=C(c1ccccc1)c1ccc2nc(-c3ccco3)c(-c3ccco3)nc2c1`: a half-maximal effect under setting [1] (EC50) was put at 16 µM. Compared with the last compound, the EC50 is about 1.8-fold higher.

`CCOc1ccccc1CNc1ccc(O)cc1` registered a 50% effective concentration (EC50) under setting [1] of 3.63 µM. Against the preceding compound, the EC50 is about 4.4-fold lower.

Turning to `Cc1ccc(C(=O)/C=C/c2ccc(-c3ccc(C)cc3)o2)cc1` [1-p-Tolyl-3-(5-p-tolyl-furan-2-yl)-propenone], it took 3.08 µM to reach a half-maximal effect under setting [1] (EC50).

`O=C(NCc1ccccc1)c1ccc2nc(-c3ccco3)c(-c3ccco3)nc2c1` [2,3-bis(furan-2-yl)-N-(phenylmethyl)quinoxaline-6-carboxamide] showed an EC50 of 7.44 µM.

Compound `COc1ccc2nc(-c3ccco3)c(-c3ccco3)nc2c1` [2,3-di-2-furyl-6-methoxyquinoxaline] registered an EC50 under setting [1] of 14.4 µM. This counts as double-digit micromolar.

In the case of `O=C(NCc1ccccn1)c1ccc2nc(-c3ccco3)c(-c3ccco3)nc2c1` [2,3-di-2-furyl-N-(pyridin-2-ylmethyl)quinoxaline-6-carboxamide], under setting [1], the half-maximal effective concentration (EC50) turned out to be 14.1 µM.

Under setting [1], `O=C(Nc1ccccc1)c1ccc2nc(-c3ccco3)c(-c3ccco3)nc2c1` [2,3-di-2-furyl-N-phenyl-6-quinoxalinecarboxamide] yielded an EC50 of 36.5 µM. This EC50 lies about 2.6-fold higher than the previous one.

`c1coc(C2=Nc3cccc4cccc(c34)N2)c1` [2-(2-furanyl)-1H-perimidine] came in with a concentration for a half-maximal effect (EC50) under setting [1] of 9.76 µM.

`COc1ccc(CC(=O)Nc2ccc(-c3nc4cc(C)ccc4o3)c(O)c2)cc1OC` [2-(3,4-dimethoxyphenyl)-N-[(4Z)-3-keto-4-(5-methyl-3H-1,3-benzoxazol-2-ylidene)cyclohexa-1,5-dien-1-yl]acetamide] had an EC50 of 10 µM.

In turn, `C=CCn1c(SCC(=O)Nc2ccc3c(c2)OCO3)nnc1-c1cc(Br)ccc1O` [2-[[(5Z)-4-allyl-5-(3-bromo-6-keto-cyclohexa-2,4-dien-1-ylidene)-1H-1,2,4-triazol-3-yl]thio]-N-(1,3-benzodioxol-5-yl)acetamide] had an EC50 of 15.8 µM.

`O=C(/C=C/c1ccccc1Cl)c1ccccc(=O)c1O` [3-[(E)-3-(2-chlorophenyl)prop-2-enoyl]-2-oxidanyl-cyclohepta-2,4,6-trien-1-one]: under setting [1], the midpoint of the response, the EC50, lay at 15 µM.

As for `Cc1cc(N)ccc1N1CCCC1` [3-methyl-4-(1-pyrrolidinyl)aniline;hydrochloride], the EC50 was 13.7 µM.

Consider `Cc1cc(-c2csc(N)n2)c(C)n1C` [4-(1,2,5-trimethyl-3-pyrrolyl)-2-thiazolamine], for which the response under setting [1] was half-maximal at 46.3 µM (EC50).

`Cc1nc2ncccn2c1-c1csc(Nc2ccccc2)n1` [4-(2-methyl-3-imidazo[1,2-a]pyrimidinyl)-N-phenyl-2-thiazolamine] showed an EC50 under setting [1] of 8.93 µM.

As to `CNc1ccc(Br)cc(C(=O)/C=C/c2cccc(OC)c2)c1=O` [4-bromo-2-[3-(3-methoxyphenyl)acryloyl]-7-(methylamino)-2,4,6-cycloheptatrien-1-one], under setting [1], the midpoint of the response, the EC50, lay at 55 µM.

In turn, `Cc1cc(C)nc(SCc2cc(=O)c(OC(=O)c3ccc(Cl)c([N+](=O)[O-])c3)co2)n1` [4-chloro-3-nitrobenzoic acid [6-[[(4,6-dimethyl-2-pyrimidinyl)thio]methyl]-4-oxo-3-pyranyl] ester] showed a concentration for a half-maximal effect (EC50) under setting [1] of 8.45 µM.

Under setting [1], `CN(C)c1ccc(C=C2C(=O)NC(=O)NC2=O)cc1[N+](=O)[O-]` [5-[[4-(dimethylamino)-3-nitrophenyl]methylidene]-1,3-diazinane-2,4,6-trione] yielded an EC50 of 16.4 µM.

As to `CCc1ccc(/C=C/C(=O)c2cc(Br)ccc(=O)c2O)cc1` [5-bromo-3-[(E)-3-(4-ethylphenyl)-1-oxoprop-2-enyl]-2-hydroxy-1-cyclohepta-2,4,6-trienone], under setting [1], the EC50 came out at 76.4 µM.

`COc1ccc(C2=Nn3c(nnc3-c3ccco3)SC2)cc1OC` [6-(3,4-Dimethoxy-phenyl)-3-furan-2-yl-7H-[1,2,4]triazolo[3,4-b][1,3,4]thiadiazine] came in with a concentration giving a half-maximal response (EC50) under setting [1] of 1.21 µM.

Compound `COc1cc(/C=C2\CC/C(=C\c3cc(OC)c(O)c(OC)c3)C2=O)cc(OC)c1O` [(2E,5E)-2,5-bis[(4-hydroxy-3,5-dimethoxyphenyl)methylidene]cyclopentan-1-one] returned an EC50 of 5.13 µM. This lies in the single-digit micromolar range.

As for `CN(C)[C@@H]1C(=O)C(C(=O)NCN2CCCC2)C(=O)[C@@]2(O)C(=O)C3C(=O)c4c(O)cccc4[C@@](C)(O)C3CC12` (stereo partly drawn) [(2Z,4S,6S,12aS)-4-(dimethylamino)-6,10,11,12a-tetrahydroxy-2-[hydroxy-(1-pyrrolidinylmethylamino)methylidene]-6-methyl-4,4a,5,5a-tetrahydrotetracene-1,3,12-trione], a half-maximal response (EC50) required 23.7 µM.

On to `COc1cc(CN=Nc2nn3cnnc3c3ccccc23)ccc1O` [(4E)-2-methoxy-4-[[2-([1,2,4]triazolo[3,4-a]phthalazin-6-yl)hydrazinyl]methylidene]cyclohexa-2,5-dien-1-one], for which the midpoint of the response, the EC50, lay at 8.47 µM.

Compound `O=C1C(=Cc2ccco2)NC(=S)N1c1ccccc1` [(5E)-5-(furan-2-ylmethylidene)-3-phenyl-2-sulfanylideneimidazolidin-4-one] came in with a concentration giving a half-maximal response (EC50) under setting [1] of 27.2 µM.

Consider `O=C1/C(=C\c2ccc(-c3ccccc3Cl)o2)SC(=S)N1CC1CCCO1` (stereo not drawn) [(5E)-5-[[5-(2-chlorophenyl)furan-2-yl]methylidene]-3-(oxolan-2-ylmethyl)-2-sulfanylidene-1,3-thiazolidin-4-one], for which the midpoint of the response, the EC50, lay at 2.33 µM.

Compound `Cc1ccc(-c2ccc(/C=C3\SC(N4CCOCC4)=NC3=O)o2)cc1` [(5Z)-5-[[5-(4-methylphenyl)-2-furanyl]methylidene]-2-(4-morpholinyl)-4-thiazolone] returned an EC50 under setting [1] of 44.6 µM.

`O=C(/C=C\c1ccc(-c2ccccc2)o1)c1ccccc1` [(Z)-1-phenyl-3-(5-phenyl-2-furanyl)-2-propen-1-one]: under setting [1], a half-maximal response (EC50) required 34.9 µM.

As to `CN1CCc2cccc3c2[C@H]1Cc1ccc(O)c(O)c1-3` [APOMORPHINE HYDROCHLORIDE], it took 42.3 µM to reach a half-maximal effect (EC50).

`COc1cc(C2Nc3cccc4cccc(c34)N2)ccc1OC(C)=O` [Acetic acid 4-(2,3-dihydro-1H-perimidin-2-yl)-2-methoxy-phenyl ester] yielded a 50% effective concentration (EC50) under setting [1] of 11.4 µM.

In turn, `COC(=O)CSc1ncnc2c1sc1nc(-c3ccco3)c3c(c12)CC(C)(C)OC3` [MLS000039339] came in with an EC50 under setting [1] of 27.6 µM. Compared with the last compound, the EC50 is about 2.4-fold higher.

In the case of `C/C(=C\c1ccco1)C1Nc2cccc3cccc(c23)N1` [MLS000055728], the 50% effective concentration (EC50) under setting [1] turned out to be 14.2 µM.

For the compound `O=C1c2ccccc2-c2onc3ccc(NCc4ccco4)c1c23` [MLS000080234], the midpoint of the response under setting [1], the EC50, lay at 37.8 µM.

Regarding `Cc1cc2n(c1)CCn1c(C)ccc1-2` [MLS000104384], a half-maximal response under setting [1] (EC50) required 15.9 µM.

`CCOC(=O)C1CCN(C(=O)Nc2ccc3nc(-c4ccco4)c(-c4ccco4)nc3c2)CC1` [MLS000113285] showed a 50% effective concentration (EC50) of 6.65 µM. In other words, the single-digit micromolar range.

`Clc1nc(NCc2cccnc2)nc(N2CCOCC2)n1` [MLS000121154] yielded an EC50 under setting [1] of 24.9 µM.

For `Clc1ccc2c(N=NCc3ccccc3Br)ccnc2c1` [MLS000336087], the EC50 worked out at 9.15 µM.

Compound `O=[N+]([O-])c1ccc(N=NCc2ccc(O)c(O)c2O)c(S(=O)(=O)N2CCOCC2)c1` [MLS000336720] came in with an EC50 of 4.66 µM.

In turn, `Cc1ccc(NC2=C(NC(=O)c3ccccc3)C(=O)c3ccccc3C2=O)cc1Cl` [MLS000392290] had an EC50 under setting [1] of 4.38 µM.

Take `COc1ccc2c3c(cccc13)N(C)N=C2C` [MLS000554700]: the midpoint of the response, the EC50, lay at 2.01 µM.

Take `COCCCn1c(N)c(C(=O)Nc2sc3c(c2C(=O)OC)CCCC3)c2nc3ccccc3nc21` [MLS000595323]: the concentration for a half-maximal effect (EC50) under setting [1] turned out to be 1.95 µM.

Regarding `COc1cc2nc(=S)[nH]c(NCCc3ccc(S(N)(=O)=O)cc3)c2cc1OC` [MLS000674601], under setting [1], it took 0.54 µM to reach a half-maximal effect (EC50). Compared with the last compound, the EC50 is about 3.6-fold lower.

Consider `Fc1ccc(C2=Nc3cccc4cccc(c34)N2)cc1` [MLS000687139], for which the midpoint of the response under setting [1], the EC50, lay at 9.27 µM.

In turn, `OCCN1CCN(CCCc2c3c(cc4c2CCC4)CCC3)CC1` [MLS000698424] returned an EC50 of 17.9 µM.

Take `COc1ccc(/C=C/C(=O)c2cc(Br)ccc(=O)c2O)cc1` [MLS000702099]: the response under setting [1] was half-maximal at 33.6 µM (EC50).

Consider `CCOC(=O)c1c(O)nc2ccc(Cl)c3c2c1-c1ccccc1C3=O` [MLS000704595], for which the concentration giving a half-maximal response (EC50) under setting [1] turned out to be 7.65 µM.

On to `COc1cccc2c(SCC(=O)NN=Cc3ccc(O)cc3O)cc(C)nc12` [N'-[(E)-(2-hydroxy-4-oxo-1-cyclohexa-2,5-dienylidene)methyl]-2-[(8-methoxy-2-methyl-4-quinolinyl)thio]acetohydrazide], for which it took 24.1 µM to reach a half-maximal effect (EC50).

As for `c1ccc(Nc2cccc(Nc3ccccc3)n2)cc1` [N,N'-diphenyl-2,6-pyridinediamine], the EC50 under setting [1] came out at 2.79 µM.

Turning to `O=C(Nc1ccc(N2CCOCC2)cc1)Nc1ccc2nc(-c3ccco3)c(-c3ccco3)nc2c1` [N-(2,3-di-2-furyl-6-quinoxalinyl)-N'-[4-(4-morpholinyl)phenyl]urea], under setting [1], the half-maximal effective concentration (EC50) came out at 8.89 µM.

Take `CC(=O)c1ccc(NC(=O)c2ccc3nc(-c4ccco4)c(-c4ccco4)nc3c2)cc1` [N-(4-acetylphenyl)-2,3-di-2-furyl-6-quinoxalinecarboxamide]: it took 8.54 µM to reach a half-maximal effect (EC50).
